The text below walks through data of patent US5846976A, “Androstenone derivative” (Glaxo Wellcome Inc., priority 1996, dated 1998).

The Ki is a measure of affinity in units of concentration, obtained from inhibition or displacement. Low values mean a stronger hold on the target, high ones a looser hold on the target. For orientation: IC50 means the concentration that gives 50% inhibition. High values mean a need for much substance, low ones inhibition by little substance.

In data set [1] the test system is porcine granulosa cell 3β-hydroxy-Δ^5-steroid dehydrogenase/3-keto-Δ^5-steroid isomerase (3BHSD). The following applies: Tan et al. 1987; Brandt and Levy 1989; cited from earlier work.
The subject of data set [2] is bovine adrenal 3β-hydroxy-Δ^5-steroid dehydrogenase/3-keto-Δ^5-steroid isomerase (3BHSD). The following applies: Tan et al. 1987; Brandt and Levy 1989; cited from earlier work.
The conditions of data set [3]: McConnell 1990; Rasmusson et al. 1984; cited from earlier work.
A further data set addresses T1, Human Adrenal 3BHSD (Homo sapiens, UniProt P26439).
T1 construct: microsomes derived from human adrenal tissues; from tissue; host or cells: human adrenal tissue (microsomes)
T1 sequence (P26439 1-372): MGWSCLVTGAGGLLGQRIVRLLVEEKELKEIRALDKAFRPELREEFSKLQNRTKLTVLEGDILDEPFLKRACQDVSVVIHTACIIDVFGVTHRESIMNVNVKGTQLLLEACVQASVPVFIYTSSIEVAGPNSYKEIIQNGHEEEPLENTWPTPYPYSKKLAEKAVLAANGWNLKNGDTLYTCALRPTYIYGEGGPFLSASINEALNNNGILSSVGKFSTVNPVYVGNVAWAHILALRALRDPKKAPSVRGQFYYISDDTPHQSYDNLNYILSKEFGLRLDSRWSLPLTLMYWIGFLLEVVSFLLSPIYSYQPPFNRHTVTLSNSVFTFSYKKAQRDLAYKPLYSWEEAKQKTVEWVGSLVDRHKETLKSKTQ
The data set is described as follows: Human adrenal 3β-hydroxy-Δ^5-steroid dehydrogenase/3-keto-Δ^5-steroid isomerase inhibition (microsomes, conversion of DHEA to androstenedione). Format: biochemical. How it is done: Enzyme activities are measured using microsomes derived from human adrenal tissues. Microsomes were prepared by homogenization of the tissue followed by differential centrifugation of the homogenate. Microsome extracts were incubated with varying concentrations of dehydroepiandrosterone (DHEA), 1 mM NAD+, and varying amounts of the compound of Formula (I), i.e. a test compound, in pH 7.5 buffer for a period of time within the range of 1 to 60 minutes. Corresponding incubations were carried out with no test compound as a control study. The percentage of conversion of DHEA to androstenedione in the presence of test compounds compared to the corresponding conversion in the control study was estimated using HPLC with radiochemical detection.

A further data set relates to 5α-reductase. The data set is described as follows: Potency compared to finasteride and SKF105657.
Data set [4] in a line: Half-life compared to finasteride and SKF105657.
The target of data set [5] is T2, human type 1 5α-reductase (Homo sapiens, UniProt P18405).
T2 construct: made in house; host or cells: SF9 insect cells infected with recombinant baculovirus (microsomes)
T2 sequence (P18405 1-259): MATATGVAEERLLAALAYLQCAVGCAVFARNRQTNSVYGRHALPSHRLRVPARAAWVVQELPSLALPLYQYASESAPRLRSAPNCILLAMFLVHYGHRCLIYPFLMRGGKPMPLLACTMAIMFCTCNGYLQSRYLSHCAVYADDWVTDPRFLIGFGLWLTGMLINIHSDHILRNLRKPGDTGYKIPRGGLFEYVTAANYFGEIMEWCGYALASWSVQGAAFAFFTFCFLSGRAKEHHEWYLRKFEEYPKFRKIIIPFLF
The experiment in a line: Steroid 5α-reductase type 1 inhibition (microsomes, conversion of testosterone to DHT). It counts as biochemical. How it is done: (§1) Enzyme activies may be determined using microsomes derived from: 1) prostate tissue from benign prostatic hyperplasia (BPH) patients; 2) recombinant baculovirus infected SF9 cells that express human type 1 5α-reductase; or 3) recombinant baculovirus infected SF9 cells that express human type 2 5α-reductase. Microsomes were prepared by homogenization of the tissue or cells, followed by differential centrifugation of the homogenate. Microsome extracts were incubated with varying concentrations of [1,2,6,7-3H]-testosterone, 1 mM NADPH, and varying amounts of the compounds of Formula I, i.e. a test compound, in buffer containing a NADPH regenerating system capable of maintaining NADPH concentrations for a period of time within the range 0.5-240 minutes. Corresponding incubations were carried out with no test compound as a control study. For clone 1 IC50 measurements, assay components except testosterone were preincubated for 10 minutes at pH 7.0, and following the addition of 100 nM testosterone the assays were allowed to proceed for 10-120 minutes. For clone 2 IC50 measurements, assay components except testosterone were preincubated for 20 minutes at pH 6.0, and following the addition of 8 nM testosterone the assays were allowed to proceed for 20-40 minutes. […]

Data set [6] addresses T3, human type 2 5α-reductase (Homo sapiens, UniProt P31213).
T3 construct: made in house; host or cells: SF9 insect cells infected with recombinant baculovirus (microsomes)
T3 sequence (P31213 1-254): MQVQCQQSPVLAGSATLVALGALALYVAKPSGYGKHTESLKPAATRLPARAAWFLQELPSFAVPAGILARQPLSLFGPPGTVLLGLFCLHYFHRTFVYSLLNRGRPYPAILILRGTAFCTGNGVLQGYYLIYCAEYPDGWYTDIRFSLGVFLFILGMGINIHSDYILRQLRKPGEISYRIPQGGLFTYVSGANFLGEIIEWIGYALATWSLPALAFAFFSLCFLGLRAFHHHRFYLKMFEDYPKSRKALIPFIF
The experiment in a line: Steroid 5α-reductase type 2 inhibition (microsomes, conversion of testosterone to DHT). Format: biochemical. On the procedure: as §1

As to `CCN(CC)C(=O)[C@H]1CC[C@H]2[C@@H]3CC[C@H]4N(C)C(=O)CC[C@]4(C)[C@H]3CC[C@]12C` [4-MA], the “inhibition of porcine granulosa cell 3BHSD” value in data set [1] is given as “potent inhibition”. For the same compound, the “inhibition of bovine adrenal 3BHSD” value in data set [2] was “potent inhibition”. Also, in data set [3], the hepatotoxicity result is “hepatotoxicity”.
For `C[C@]12C=CC(=O)N[C@@H]1CC[C@@H]1[C@@H]2CC[C@]2(C)[C@@H](C(=O)Nc3cc(C(F)(F)F)ccc3C(F)(F)F)CC[C@@H]12` [compound of formula (I), 17β-N-(2,5-bis(Trifluoromethyl))phenylcarbamoyl-4-aza-5α-androst-1-en-3-one], the inhibition constant Ki at Human Adrenal 3BHSD is over 1000 nM. Further, the potency entry in the data set with 5α-reductase was “surprisingly long half-life and potency compared to finasteride and SKF105657”. Moreover, the half-life entry in data set [4] is “surprisingly long half-life”. The half-inhibitory concentration (IC50) in data set [5] and in data set [6] was under 1 nM each time.
